Source: publication PMC13130965, “An Integrated Approach Combining Regulatory Tests in tg(cyp19a1b:GFP) Zebrafish Embryos to Assess Toxicity, Developmental Effects, and Estrogenic Activity of Chemicals: A Case Study with Bisphenol A Substitutes” (Environmental Science & Technology, 2026)
pEC50: −log10 of the molar value. In brackets after ≈: the same amount, converted by molar mass. Several values for one entry are separate records, joined by “and”; a condition that tells them apart may be missing. Equal entries are not always repeated. Where two headings read alike, the source gives them in different places.

Columns and labels:
[1] = Refined Fish Embryo Acute Toxicity test (FET, OECD TG 236): mortality; assay type: in vivo, zebrafish (Danio rerio); details: tg(cyp19a1b:GFP), zebrafish, in vivo, LC50 (96h) experimental (FET test), nominal, brackets 95% CI
Protocol: (§1) Exposures were carried out in presaturated 24-well plates containing one embryo per well in 2 mL of test solution. The exposure was performed under semistatic conditions, with daily renewal of the test solution. The concentration ranges tested, along with a control with the same percentage of solvent alone, are recapitulated in Table S1. All exposure concentrations are reported as nominal. During the time course of the refined FET tests, embryos were observed after 8 h (coagulation), 24 h (lack of somite formation and nondetachment of the tail), and 48, 72, and 96 h of exposure (nondetection of the heartbeat). […] Moreover, hatching rate and nonlethal developmental effects (i.e., yolk deformity, growth retardation, spontaneous movement, edema, blood tail circulation, heart rate, pigmentation, head and tail/spinal malformations, and hemorrhage) were monitored daily. Tail/spinal malformations included lordosis, kyphosis, scoliosis, and reduced tail length.
(§2) This analysis considered all nonlethal developmental end points monitored in the refined FET assay (see above), except effects on hatching, pigmentation, spontaneous movement, and blood circulation. A teratogenic index (TI) was then calculated as the ratio LC50/EC50.
Baseline toxicity and experimental FET LC50 values were used to calculate toxic ratios (TR = predicted baseline toxicity LC50/experimental FET LC50). Compounds with TR < 10 were considered as baseline toxicants.

[2] = test system: tg(cyp19a1b:GFP) zebrafish embryos; experiment: Refined FET: developmental effects / malformations; assay type: in vivo, zebrafish (Danio rerio); details: nominal
Protocol: as §1, §2

[3] = test system: cyp19a1b:GFP (brain aromatase) in tg(cyp19a1b:GFP) zebrafish embryos; experiment: EASZY assay (OECD TG 250): GFP induction; assay type: in vivo, zebrafish (Danio rerio); details: Danio rerio, 96 h
Protocol: The tests were conducted according to OECD TG 250. Newly fertilized cyp19a1b-GFP eggs were transferred to glass crystallizing dishes and exposed for 96 h in a humidified climate chamber (27 ± 2 °C) under semistatic conditions with a total renewal of the test solutions each day. Each condition consisted of three crystallizing dishes, each containing 7 embryos and 15 mL of test medium. Embryos were exposed to a range of nonlethal concentrations of chemicals as determined previously based on the refined FET assays. The tested concentration ranges of bisphenols, along with a control with the same percentage of solvent alone, are summarized in Table S2. All exposure concentrations are reported as nominal. At the end of exposure, transgenic zebrafish embryos were collected for fluorescence imaging to quantify GFP intensity. At the end of the experiments, all living zebrafish embryos were euthanized as described above. […] ICI was added together with bisphenols from 0 to 4 dpf (days post fertilization). […] In all coexposure experiments, the final DMSO concentration was 0.02% (v/v).
For fluorescence imaging, GFP fold induction was expressed as mean ± SEM, and values were compared to the DMSO control using one-way ANOVA followed by Dunnett’s posthoc test. […]

zebrafish ERβ2 (zfERβ2) = zebrafish ERβ2 (zfERβ2) (Danio rerio, UniProt Q7ZU32); experiment: ZELH-zfERβ2 luciferase reporter gene assay; assay type: cell-based; details: % of positive control E2 10 nM
Protocol: The ZELH-zfERs reporter cell line was previously established after a two-step stable transfection of the zebrafish hepatic cell line ZFL with the luciferase gene under the control of ERE (yielding the ZELH cell line that expresses no functional ER) and the zebrafish ER subtype β2 (yielding the ZELH-zfERβ2 cell line). Cells were cultured, exposed to chemicals for 72 h, and measured for luciferase activity exactly as previously described. , For each chemical, serial dilutions were prepared in DMSO and tested in three independent experiments. The final DMSO concentration in the culture medium was always 0.1% v/v. All tested concentrations refer to nominal concentrations.

hERβ [4] = test system: hERβ; set-up: method as in Grimaldi et al.; details: HELN-hERβ; ref Grimaldi et al.; cited from earlier work
hERβ [5] = test system: hERβ; set-up: method as in Pelch et al.; details: HepG2-hERβ, ref Pelch et al., cited from earlier work
[6] = test system: Zebrafish embryos ERE-GFP-Casper; set-up: method as in Green et al. (2016); details: 120h exposure; ref Green et al. (2016); cited from earlier work
[7] = experimental value; ref Epi-Suite (US-EPA); cited from earlier work
Zebrafish embryos = details: cited from earlier work; for LC50: read-out: LC50(96h)
Adult Zebrafish = details: ref Ren et al. (2017); cited from earlier work
Fathead minnow = details: 4-days exposure, ref Corrales et al. (2017); cited from earlier work
[8] = 72h exposure, ref Duan et al. (2008)
[9] = 120h-exposure, ref Qiu et al. (2021)
[10] = 150h exposure, ref Song et al. (2014)
[11] = zebrafish embryos, ref Ren et al. (2017)

Chain of zebrafish ERβ2 (zfERβ2) (Q7ZU32 1-553): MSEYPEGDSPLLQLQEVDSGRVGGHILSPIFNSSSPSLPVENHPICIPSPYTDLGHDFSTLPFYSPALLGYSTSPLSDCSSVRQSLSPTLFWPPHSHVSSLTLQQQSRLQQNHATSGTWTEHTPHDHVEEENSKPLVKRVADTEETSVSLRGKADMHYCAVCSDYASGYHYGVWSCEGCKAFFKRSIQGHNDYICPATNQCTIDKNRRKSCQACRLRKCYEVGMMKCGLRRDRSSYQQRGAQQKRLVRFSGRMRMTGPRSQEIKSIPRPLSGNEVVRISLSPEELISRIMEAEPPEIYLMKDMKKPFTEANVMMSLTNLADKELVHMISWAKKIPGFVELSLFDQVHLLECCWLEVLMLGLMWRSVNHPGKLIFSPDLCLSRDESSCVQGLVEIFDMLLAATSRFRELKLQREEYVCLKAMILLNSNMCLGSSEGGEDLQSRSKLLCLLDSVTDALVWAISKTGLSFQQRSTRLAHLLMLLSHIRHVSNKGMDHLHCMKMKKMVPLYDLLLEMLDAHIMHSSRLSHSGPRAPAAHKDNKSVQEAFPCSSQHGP

Structure (SMILES): CC(C)(c1ccc(O)cc1)c1ccc(O)cc1 [BPA, 4-[2-(4-hydroxyphenyl)propan-2-yl] phenol]
- LC50 at 96 h [1]: 14.1 µg/mL (≈ 61.9 µM)
- EC50 ([2]; Danio rerio, end of 96 h exposure, read-out: EC50 malformations (cumulative sublethal end points)): 6.06 µg/mL (≈ 26.5 µM)
- LOEC edema [2]: 10 mg/L
- LOEC growth retardation [2]: 20 mg/L
- LOEC heart rate disruption [2]: 20 mg/L
- LOEC hemorrhage [2]: 10 mg/L
- LOEC no spontaneous movement [2]: 10 mg/L
- LOEC no/Less pigmentation [2]: 10 mg/L
- LOEC tail/spinal malformations [2]: 10 mg/L
- LOEC deformity of yolk ([2]; at least 10% of embryos affected): 20 mg/L
- minimal effective concentration ([3]; read-out: EASZY LOEC (GFP induction), nominal): 0.625 µg/mL
- EC50 ([3]; read-out: EASZY relative EC50, nominal): 0.98 µg/mL (≈ 4.29 µM)
- maximal efficacy (zebrafish ERβ2 (zfERβ2)): 55%
- pEC50 (hERβ [4]): 6.42
- maximal efficacy (hERβ [4]): 66%
- pEC50 (hERβ [5]; NA = not active): 6.46
- maximal efficacy (hERβ [5]): 97%
- EC50 [6]: 1.226 µg/mL (≈ 5.37 µM)
- LOEC [6]: 1000 µg/L and 4380.32 nM
- Water solubility [7]: 300 µg/mL
- mortality (Zebrafish embryos; 100 µM (23 mg/L) at 72h, ref Björnsdotter et al. (2017)): 100%
- mortality (Zebrafish embryos; 20 mg/L, 48h, ref Makarova et al. (2016)): 65%
- LC10(96h) (Zebrafish embryos; 4-days exposure, ref Blanc et al. (2019)): 6.62 µg/mL (≈ 29 µM)
- LC50(48h) (Zebrafish embryos; 4-days exposure, ref Tišler et al. (2016)): 15.9 (13.8-18.3) mg/L
- mortality (Zebrafish embryos; 5-15 µM, ref McCormick et al. (2010)): 4-8%
- LC50(24h) (Zebrafish embryos; [8]): 16.75 µg/mL (≈ 73.4 µM)
- NOEC (Zebrafish embryos; [8]): 2 mg/L
- LOEC (body length, GnRH3 neurons, reproductive neuroendocrine-related genes and hormones) (Zebrafish embryos; [9]): 100 µg/L
- NOEC (body length, GnRH3 neurons, reproductive neuroendocrine-related genes and hormones) (Zebrafish embryos; [9]): 1 µg/L
- LC50(144h) (Zebrafish embryos; [10]): 7.5 µg/mL (≈ 32.9 µM)
- LOAELs (Zebrafish embryos; [10]): 5 mg/L
- NOEC (developmental toxicity) (Zebrafish embryos; Wildtype (AB/TL), 1-6 dpf static + 6-9 dpf semistatic, ref Catron et al. (2018; 2019)): 11.5 µM
- LC50(96h) (Zebrafish embryos; Zebrafish, 4-days exposure, ref Corrales et al. (2017)): 12.8 µg/mL (≈ 56.1 µM)
- scoliosis (% of embryos) (Zebrafish embryos; at 8.041 mg/L, 2-5 dpf exposure, ref Martínez et al. (2019)): 16%
- mortality (Zebrafish embryos; at 25 mg/L, ref Duan et al. (2008)): 100%
- LC50 (Zebrafish embryos; 4-days exposure, ref Chow et al. (2013)): 35 µM
- LC50 (Zebrafish embryos; Wildtype AB, 96h-exposure, ref Arrokhman et al. (2023)): 57.1 µM
- delayed hatching EC50(96h) (Zebrafish embryos; ref Chow et al. (2013)): 5.25 µg/mL
- LC50(5dpf) (Zebrafish embryos; ref McCormick et al. (2011)): 5 (±0.89) mg/L
- LC50(28dpf) (Zebrafish embryos; ref McCormick et al. (2011)): 1.8 µg/mL (≈ 7.88 µM)
- LOAEL(5dpf) (Zebrafish embryos; ref McCormick et al. (2011)): 1 mg/L
- Edema EC50(48h) (Zebrafish embryos; ref Tišler et al. (2016)): 13.9 (8.5-22.8) mg/L
- Hatching inhibition EC50(72h) (Zebrafish embryos; ref Tišler et al. (2016)): 4.0 µg/mL
- Missing blood flow EC50(48h) (Zebrafish embryos; ref Tišler et al. (2016)): 12.3 µg/mL
- Pigmentation EC50(48h) (Zebrafish embryos; ref Tišler et al. (2016)): 3.6 (2.5-5.3) mg/L
- LC50 (96h) literature (Zebrafish embryos; zebrafish embryos, 95% CI, ref Chow et al.): 8.041 [7.846;8.24] mg/L
- LC50 (96h) literature (Zebrafish embryos; zebrafish embryos, 95% CI, ref Mu et al.): 10.4 [9.44–11.58] mg/L
- LC50 (96h) literature (Zebrafish embryos; zebrafish embryos, parentheses SEM, ref Moreman et al.): 12 (0.22) mg/L
- LC50 (96h) literature (Zebrafish embryos; zebrafish embryos, ref Arrokhman et al.): 13 mg/L (≈ 56.9 µM)
- LC50 (96h) literature (Zebrafish embryos; zebrafish embryos, ref Blanc et al.): 9.82 mg/L (≈ 43 µM)
- LC50 (96h) literature (Zebrafish embryos; zebrafish embryos, ref Gao et al.): 11.69 mg/L (≈ 51.2 µM)
- Body length LOEC (Zebrafish embryos; [11]): 4 mg/L
- Body length NOEC (Zebrafish embryos; [11]): 2 mg/L
- LC50 (96h) literature (Zebrafish embryos; zebrafish embryos, ref Ren et al.): 5.82 mg/L (≈ 25.5 µM)
- LC50(24h) (Adult Zebrafish): 9.51 µg/mL (≈ 41.7 µM)
- LC50(48h) (Adult Zebrafish): 9.31 µg/mL (≈ 40.8 µM)
- LC50(72h) (Adult Zebrafish): 8.09 µg/mL (≈ 35.4 µM)
- LC50(96h) (Adult Zebrafish): 8.09 µg/mL (≈ 35.4 µM)
- LC50(96h) (Fathead minnow): 4.2 µg/mL (≈ 18.4 µM)
